Measurements as given in patent US20120027720A1, “PEPTIDE CONJUGATES” (priority 2008, published 2012).
*1 amine or outer side, *2 acyl side, *3 side chain or, on linkers, in order; H or OH if unused. Where no end group is shown, it is not given here. [ ]: non-standard residue; d: D form. Cys(StBu) = L-S-tert-butylthio-cysteine, CC(C)(C)SSC[C@H](N[*:1])C(=O)[*:2]; Phe(3-Me) = Cc1cccc(C[C@H](N)C(=O)O)c1; Met(O) = CS(=O)CC[C@H](N)C(=O)O; AllylGly = C=CC[C@H](N)C(=O)O; Phg = N[C@H](C(=O)O)c1ccccc1; Tle = CC(C)(C)[C@H](N)C(=O)O; hCys = N[C@@H](CCS)C(=O)O; hSer = N[C@@H](CCO)C(=O)O; Abu = CC[C@H](N)C(=O)O; Dap = NC[C@H](N)C(=O)O

Legend:
CaCo2 monolayers [1] = test: Epithelial flux of Lucifer Yellow through cell monolayer; format: cell-based; design: key to Enhanced LY permeability: + indicates an enhancement of the permeability of the tight junctions were observed; − indicates no enhancement of permeability was observed; settings: Lucifer Yellow flux, Caco-2 monolayer
From the text: (§1) Agonists of tight junctions can be identified by their ability to enhance the flux of compounds (e.g. ions, Lucifer Yellow) through a cell monolayer that comprises tight junctions; or by their ability to reduce TEER across a cell monolayer that comprises tight junctions. Treatment of CaCo2 monolayers with peptide FCIGRL (SEQ ID NO: 1) led to a 51-fold enhancement of Lucifer Yellow permeability through CaCo2 monolayers compared to vehicle alone. Treatment of CaCo2 monolayers with peptide FCIGRL led to a 16-fold decrease in TEER across CaCo2 monolayers compared to vehicle alone.
(§2) Determination of TEER and Lucifer Yellow Flux
(§3) Prepare Modified Hank's Balanced Salt Solution (MHBSS) by obtaining 1 L bottle of HBSS removing 10 ml of HBSS and replacing it with 10 ml HEPES buffer pH 7.0. Adjust pH to 7.4±0.1 using concentrated NaOH (10N).
(§4) Remove Caco-2 cells from incubator, grown on 12-well, […], polycarbonate Transwell® filters (Corning) and record passage#, date cells seeded and age in days.
(§5) Aspirate cell culture medium from both the apical (AP) and basolateral (BL) compartments, replacing with 0.5 ml and 1.5 ml of MHBSS, respectively. Incubate cells at 37° C. for 30 minutes.
(§6) Aspirate solution from the apical compartment of each filter (n=3 per condition) and replace with 0.5 ml of control and test solutions containing Lucifer Yellow and test compound if appropriate.
(§7) Place all plates into incubator set at 37° C. (±0.2), 50 RPM (±5) for a total of 180 minutes.
At t=60, 120 and 180 minutes remove 100 μl from each basolateral compartment and place it in a 96-well plate for Lucifer Yellow analysis, replace with 100 μl of MHBSS.
Make a Lucifer Yellow standard curve with the following dilutions (7500 μM, 3750 μM, 750 μM, 375 μM, 75 μM, 37.5 μM, 7.5 μM, 3.75 μM, 0.75 μM) and pipette […] of each into a 96-well plate except for the first three standards mentioned above which require a 1:10 dilutions prior to transferring to the 96-well plate.
Harvest the remaining start solutions and what is left in each apical compartment into 1.5 ml vials. Freeze at −20° C. for future analysis.
Analyze each 96-well plate in a Tecan Spectra Fluor Plus using Magellan at 485 and 535 nm.
(§8) Cells: Caco-2 cells passage 40-60 grown on Transwell® plates for 21-28 days
(§9) Culture Medium: DMEM supplemented with 10% fetal bovine serum, 1% NEAA, 1% Penn/Strep
(§10) Buffers: Hank's Balanced Salt Solution (HBSS) without calcium and magnesium
(§11) Flasks: 100×20 mm Tissue culture dish Falcon.
(§12) Plates: 12 well polycarbonate Transwell® filters; 0.3 uM pore size

CaCo2 monolayers [2] = test: Trans Epithelial Electric Resistance (TEER) across cell monolayer; format: cell-based; design: key to Reduced TEER: + indicates an enhancement of the permeability of the tight junctions were observed; − indicates no enhancement of permeability was observed; settings: Caco-2 monolayer
From the text: as §1, §2, §3, §4, §5
Using the MilliCell®-ERS instrument (Millipore), measure and record the transepithelial electrical resistance (TEER) across each filter and record.
as §6, §7
At t=30, 60, 120 and 180 minutes, measure and record the transepithelial electrical resistance (TEER) across each filter using the MilliCell-ERS instrument.
as §8, §9, §10, §11, §12

| Substance | Enhanced LY permeability (CaCo2 monolayers [1]) | Reduced TEER (CaCo2 monolayers [2]) |
| --- | --- | --- |
| 184 (F[AllylGly]IGR-NH2; N-terminus assumed; SMILES C=CC[C@H](NC(=O)[C@@H](N)Cc1ccccc1)C(=O)N[C@H](C(=O)NCC(=O)N[C@@H](CCCNC(=N)N)C(N)=O)[C@@H](C)CC) [compound 184] | − | − |
| 174 ([Phe(3-Me)]FIGRL; not fully specified; also: peptide conjugate) [compound 174] | − | − |
| 129 (FQIGRL; also: peptide conjugate) [compound 129] | − | − |
| 207 (F[AllylGly]SGRL-NH2; N-terminus assumed; SMILES C=CC[C@H](NC(=O)[C@@H](N)Cc1ccccc1)C(=O)N[C@@H](CO)C(=O)NCC(=O)N[C@@H](CCCNC(=N)N)C(=O)N[C@@H](CC(C)C)C(N)=O) [compound 207] | + | + |
| 202 (I[AllylGly]IGRL-NH2; N-terminus assumed; SMILES C=CC[C@H](NC(=O)[C@@H](N)[C@@H](C)CC)C(=O)N[C@H](C(=O)NCC(=O)N[C@@H](CCCNC(=N)N)C(=O)N[C@@H](CC(C)C)C(N)=O)[C@@H](C)CC) [compound 202] | − | − |
| 114 (FTIGRL; also: peptide conjugate) [compound 114] | + | + |
| 154 (F[Phg]IGRL-OH; not fully specified; printed as Phe-Phg-Ile-Gly-Arg-Leu-OH; also: peptide conjugate, Xaa: 'may be' L-phenylglycine) [compound 154] | + | + |
| 26 (LRG[dI]CF; not fully specified; printed as Leu-Arg-Gly-D-Ile-Cys-Phe) [compound 26] | + | + |
| 162 (F[hCys]IGRL; also: peptide conjugate, Xaa: 'may be' homocysteine) [compound 162] | + | + |
| 169 (Ac-F[hSer]IGR-NH2; also: peptide conjugate) [compound 169] | − | − |
| 170 (F[hSer][dI]GR-NH2; also: peptide conjugate) [compound 170] | − | − |
| 118 (FFLIGRL-NH2; also: peptide conjugate) [compound 118] | + | + |
| 120 (FPIGRL; also: peptide conjugate) [compound 120] | − | − |
| 83 (GFCIGRL; not fully specified; printed as Gly-Phe-Cys-Ile-Gly-Arg-Leu) [compound 83] | + | + |
| 121 (FWIGRL; also: peptide conjugate) [compound 121] | + | + |
| 165 (F[dL]IGRL-NH2; also: peptide conjugate) [compound 165] | − | − |
| 192 (V[AllylGly]IGRL-NH2; N-terminus assumed; SMILES C=CC[C@H](NC(=O)[C@@H](N)C(C)C)C(=O)N[C@H](C(=O)NCC(=O)N[C@@H](CCCNC(=N)N)C(=O)N[C@@H](CC(C)C)C(N)=O)[C@@H](C)CC) [compound 192] | − | − |
| 157 (F[Tle]IGRL-OH; not fully specified; also: peptide conjugate, Xaa: 'may be' L-tert-butylglycine) [compound 157] | + | + |

| Substance | Enhanced LY permeability (CaCo2 monolayers [1]) | Reduced TEER (CaCo2 monolayers [2]) |
| --- | --- | --- |
| 160 (F[Dap]IGRL; not fully specified; printed as Phe-Dpr-Ile-Gly-Arg-Leu; also: peptide conjugate) [compound 160] | + | + |
| 115 (FSIGRL; also: peptide conjugate) [compound 115] | + | + |
| 171 (Ac-F[hSer]IGRL-NH2; also: peptide conjugate) [compound 171] | − | − |
| 166 (LRG[dI]LF-NH2; also: peptide conjugate) [compound 166] | − | − |
| 80 (SLIGRL-NH2; not fully specified; printed as Ser-Leu-Ile-Gly-Arg-Leu-NH2) [compound 80] | + | + |
| 197 (K[AllylGly]IGRL-NH2; N-terminus assumed; SMILES C=CC[C@H](NC(=O)[C@@H](N)CCCCN)C(=O)N[C@H](C(=O)NCC(=O)N[C@@H](CCCNC(=N)N)C(=O)N[C@@H](CC(C)C)C(N)=O)[C@@H](C)CC) [compound 197] | − | − |
| 74 (YCIGRL; not fully specified; printed as Tyr-Cys-Ile-Gly-Arg-Leu) [compound 74] | + | + |
| 27 (LRGI[dC]F; not fully specified; printed as Leu-Arg-Gly-Ile-D-Cys-Phe) [compound 27] | − | − |
| 143 (H-F[Met(O)]IGRL-OH; not fully specified; also: peptide conjugate, Xaa: 'may be' L-methionine-sulfoxide) [compound 143] | − | − |
| 151 (F[hSer]IGRF; also: peptide conjugate, Xaa: 'may be' homoserine) [compound 151] | − | − |
| 203 (F[AllylGly]PGRL-NH2; N-terminus assumed; SMILES C=CC[C@H](NC(=O)[C@@H](N)Cc1ccccc1)C(=O)N1CCC[C@H]1C(=O)NCC(=O)N[C@@H](CCCNC(=N)N)C(=O)N[C@@H](CC(C)C)C(N)=O) [compound 203] | − | − |
| 142 (H-F[Abu]IGRL-OH; SMILES CC[C@H](NC(=O)[C@@H](N)Cc1ccccc1)C(=O)N[C@H](C(=O)NCC(=O)N[C@@H](CCCNC(=N)N)C(=O)N[C@@H](CC(C)C)C(=O)O)[C@@H](C)CC) [compound 142] | − | − |
| 223 (F[AllylGly]IARL-NH2; N-terminus assumed; SMILES C=CC[C@H](NC(=O)[C@@H](N)Cc1ccccc1)C(=O)N[C@H](C(=O)N[C@@H](C)C(=O)N[C@@H](CCCNC(=N)N)C(=O)N[C@@H](CC(C)C)C(N)=O)[C@@H](C)CC) [compound 223] | + | + |
| 209 (F[AllylGly]VGRL-NH2; N-terminus assumed; SMILES C=CC[C@H](NC(=O)[C@@H](N)Cc1ccccc1)C(=O)N[C@H](C(=O)NCC(=O)N[C@@H](CCCNC(=N)N)C(=O)N[C@@H](CC(C)C)C(N)=O)C(C)C) [compound 209] | − | − |
| 153 (F[Cys(StBu)]IGRL; also: peptide conjugate, Xaa: 'may be' L-S-tert-butylthio-cysteine) [compound 153] | − | − |
| 208 (F[AllylGly]FGRL-NH2; N-terminus assumed; SMILES C=CC[C@H](NC(=O)[C@@H](N)Cc1ccccc1)C(=O)N[C@@H](Cc1ccccc1)C(=O)NCC(=O)N[C@@H](CCCNC(=N)N)C(=O)N[C@@H](CC(C)C)C(N)=O) [compound 208] | + | + |
| 87 (Ac-FLIGRL-NH2; not fully specified) [compound 87] | + | + |
